Source: ChEMBL document CHEMBL1136757 (J Med Chem, 2003)
pIC50: −log10 of the molar value. Where “and” joins values, the source holds several entries; their conditions need not be identical. Equal entries are not always repeated.

Legend:
[1] = biological target: Aldo-keto reductase family 1 member B1 (Rattus norvegicus, UniProt P07943); test: In vitro inhibitory activity against aldose reductase (ALR2) from rat lens extraction.
[2] = species: Rattus norvegicus; test: Ability to prevent cataract development in severly galactosemic rat treated with 3 percent ophthalmic solution on day 20; type: functional
[3] = species: Rattus norvegicus; test: Ability to prevent cataract development in severly galactosemic rat treated with 3 percent ophthalmic solution on day 21; type: functional
[4] = species: Rattus norvegicus; test: Ability to prevent cataract development in severly galactosemic rat treated with 3 percent ophthalmic solution on day 11; type: functional
[5] = species: Rattus norvegicus; test: Ability to prevent cataract development in severly galactosemic rat treated with 3 percent ophthalmic solution on day 12; type: functional
[6] = species: Rattus norvegicus; test: Ability to prevent cataract development in severly galactosemic rat treated with 3 percent ophthalmic solution on day 13; type: functional
[7] = species: Rattus norvegicus; test: Ability to prevent cataract development in severly galactosemic rat treated with 3 percent ophthalmic solution on day 14; type: functional
[8] = species: Rattus norvegicus; test: Ability to prevent cataract development in severly galactosemic rat treated with 3 percent ophthalmic solution on day 16; type: functional
[9] = species: Rattus norvegicus; test: Ability to prevent cataract development in severly galactosemic rat treated with 3 percent ophthalmic solution on day 17; type: functional
[10] = species: Rattus norvegicus; test: Ability to prevent cataract development in severly galactosemic rat treated with 3 percent ophthalmic solution on day 18; type: functional
[11] = species: Rattus norvegicus; test: Ability to prevent cataract development in severly galactosemic rat treated with 3 percent ophthalmic solution on day 19; type: functional
[12] = species: Rattus norvegicus; test: Ability to prevent cataract development in severly galactosemic rat treated with 3 percent ophthalmic solution on day 15; type: functional
[13] = biological target: T1, Aldo-keto reductase family 1 member A1 (Rattus norvegicus, UniProt P51635); test: In vitro inhibitory activity against aldehyde reductase 1 (ALR1) from rat kidney.
T1 sequence (P51635 whole entry): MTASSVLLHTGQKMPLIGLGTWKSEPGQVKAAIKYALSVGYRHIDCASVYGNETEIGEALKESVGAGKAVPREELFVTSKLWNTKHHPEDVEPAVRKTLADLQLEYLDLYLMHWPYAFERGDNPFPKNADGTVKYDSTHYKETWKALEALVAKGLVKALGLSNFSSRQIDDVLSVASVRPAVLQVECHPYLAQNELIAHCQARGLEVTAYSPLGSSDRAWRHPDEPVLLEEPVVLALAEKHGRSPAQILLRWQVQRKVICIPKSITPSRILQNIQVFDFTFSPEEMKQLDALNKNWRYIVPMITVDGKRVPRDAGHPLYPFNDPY

[14] = biological target: T2, Glutathione reductase (Saccharomyces cerevisiae S288c, UniProt P41921); test: In vitro inhibitory activity against glutathione reductase (GR) from bakers yeast; Not active
T2 sequence (P41921 whole entry): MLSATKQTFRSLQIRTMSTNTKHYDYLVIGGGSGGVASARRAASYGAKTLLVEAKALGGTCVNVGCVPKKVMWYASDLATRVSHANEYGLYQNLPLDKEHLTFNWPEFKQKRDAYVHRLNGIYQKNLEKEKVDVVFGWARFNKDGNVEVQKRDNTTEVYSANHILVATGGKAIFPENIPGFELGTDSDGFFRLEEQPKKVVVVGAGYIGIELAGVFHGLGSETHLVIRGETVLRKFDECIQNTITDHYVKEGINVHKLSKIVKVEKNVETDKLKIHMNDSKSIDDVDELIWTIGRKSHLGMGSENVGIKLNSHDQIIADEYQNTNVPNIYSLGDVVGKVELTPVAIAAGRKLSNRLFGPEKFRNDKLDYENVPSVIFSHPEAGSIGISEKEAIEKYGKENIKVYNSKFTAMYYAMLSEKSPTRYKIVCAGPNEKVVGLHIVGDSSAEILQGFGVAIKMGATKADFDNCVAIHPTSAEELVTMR

[15] = In vitro inhibitory activity against sorbitol dehydrogenase (SD) from sheep liver; Not active
[16] = biological target: T2, Glutathione reductase; test: In vitro inhibitory activity against glutathione reductase (GR) from bakers yeast
[17] = species: Rattus norvegicus; test: Ability to prevent cataract development in severly galactosemic rat treated with 1 percent ophthalmic solution on day 20; type: functional
[18] = species: Rattus norvegicus; test: Ability to prevent cataract development in severly galactosemic rat treated with 1 percent ophthalmic solution on day 21; type: functional
[19] = species: Rattus norvegicus; test: Ability to prevent cataract development in severly galactosemic rat treated with 1 percent ophthalmic solution on day 11; type: functional
[20] = species: Rattus norvegicus; test: Ability to prevent cataract development in severly galactosemic rat treated with 1 percent ophthalmic solution on day 12; type: functional
[21] = species: Rattus norvegicus; test: Ability to prevent cataract development in severly galactosemic rat treated with 1 percent ophthalmic solution on day 13; type: functional
[22] = species: Rattus norvegicus; test: Ability to prevent cataract development in severly galactosemic rat treated with 1 percent ophthalmic solution on day 14; type: functional
[23] = species: Rattus norvegicus; test: Ability to prevent cataract development in severly galactosemic rat treated with 1 percent ophthalmic solution on day 15; type: functional
[24] = species: Rattus norvegicus; test: Ability to prevent cataract development in severly galactosemic rat treated with 1 percent ophthalmic solution on day 16; type: functional
[25] = species: Rattus norvegicus; test: Ability to prevent cataract development in severly galactosemic rat treated with 1 percent ophthalmic solution on day 17; type: functional
[26] = species: Rattus norvegicus; test: Ability to prevent cataract development in severly galactosemic rat treated with 1 percent ophthalmic solution on day 18; type: functional
[27] = species: Rattus norvegicus; test: Ability to prevent cataract development in severly galactosemic rat treated with 1 percent ophthalmic solution on day 19; type: functional

CCCN1C(=O)C(C(C#N)C(=O)O)c2cc(F)ccc21 (centres undefined)
pIC50 [1]: 6.55

COc1ccc(CN2C(=O)C(C(C#N)C(=O)O)c3cc(F)ccc32)cc1 (centres undefined)
pIC50 [1]: 6.96

Cc1ccc(CN2C(=O)C(C(C#N)C(=O)OC(C)C)c3cc(F)ccc32)cc1 (centres undefined)
Nuclear cataract [2]: 8% | Nuclear cataract [3]: 8% | Nuclear cataract [4]: 0% | Nuclear cataract [5]: 0% | Nuclear cataract [6]: 0% | Nuclear cataract [7]: 0% | Nuclear cataract [8]: 0% | Nuclear cataract [9]: 0% | Nuclear cataract [10]: 0% | Nuclear cataract [11]: 8% | Nuclear cataract [12]: 0%

N#CC(C(=O)O)C1C(=O)N(Cc2ccccc2)c2ccc(F)cc21 (centres undefined)
pIC50 [1]: 6.74

N#CC(C(=O)O)C1C(=O)N(Cc2ccc(F)cc2)c2ccc(F)cc21 (centres undefined)
pIC50 [1]: 6.89 and 7.24 | pIC50 [13]: 6.31 | IC50 [14]: Not Active | IC50 [15]: Not Active

N#CC(C(=O)O)C1C(=O)N(Cc2ccc(F)cc2)c2ccccc21 (centres undefined)
pIC50 [1]: 6.24

N#CC(C(=O)O)C1C(=O)N(Cc2ccc(C(F)(F)F)cc2)c2ccc(F)cc21 (centres undefined)
pIC50 [1]: 6.55

O=c1c(O)c(-c2ccc(O)c(O)c2)oc2cc(O)cc(O)c12 [QUERCETIN]
pIC50 [16]: 4.31

N#CC(C(=O)O)C1C(=O)Nc2ccc(F)cc21 (centres undefined)
pIC50 [1]: 6.55 | pIC50 [13]: 5.17 | IC50 [14]: Not Active | IC50 [15]: Not Active

Cc1ccc(CN2C(=O)C(C(C#N)C(=O)O)c3cc(Br)ccc32)cc1 (centres undefined)
pIC50 [1]: 6.60

N#CC(C(=O)O)C1C(=O)N(Cc2ccc(C(F)(F)F)cc2)c2ccccc21 (centres undefined)
pIC50 [1]: 6.24

N#CC(C(=O)O)C1C(=O)Nc2ccccc21 (centres undefined)
pIC50 [1]: 6.07

CN1C(=O)C(C(C#N)C(=O)O)c2cc(F)ccc21 (centres undefined)
pIC50 [1]: 6.41

N#CC(C(=O)O)C1C(=O)N(CCCl)c2ccc(F)cc21 (centres undefined)
pIC50 [1]: 5.87

Cc1ccc(CN2C(=O)C(C(C#N)C(=O)O)c3ccccc32)cc1 (centres undefined)
pIC50 [1]: 6.19 and 6.34 | pIC50 [13]: 5.45 | IC50 [14]: Not Active | IC50 [15]: Not Active

COc1ccc2c(C(=S)N(C)CC(=O)O)cccc2c1C(F)(F)F [TOLRESTAT]
pIC50 [1]: 7.34 | IC50 [13]: Not Active | IC50 [14]: Not Active | Nuclear cataract [2]: 0% | Nuclear cataract [3]: 0% | Nuclear cataract [17]: 47% | Nuclear cataract [18]: 47% | Nuclear cataract [4]: 0% | Nuclear cataract [5]: 0% | Nuclear cataract [6]: 0% | Nuclear cataract [7]: 0% | Nuclear cataract [8]: 0% | Nuclear cataract [9]: 0% | Nuclear cataract [10]: 0% | Nuclear cataract [11]: 0% | Nuclear cataract [19]: 0% | Nuclear cataract [20]: 0% | Nuclear cataract [21]: 0% | Nuclear cataract [22]: 23% | Nuclear cataract [23]: 32% | Nuclear cataract [24]: 32% | Nuclear cataract [25]: 32% | Nuclear cataract [26]: 43% | Nuclear cataract [27]: 43% | Nuclear cataract [12]: 0%

N#CC(C(=O)O)C1C(=O)Nc2ccc(Br)cc21 (centres undefined)
pIC50 [1]: 6.42

N#CC(C(=O)O)C1C(=O)Nc2ccc([N+](=O)[O-])cc21 (centres undefined)
pIC50 [1]: 5.92

Cc1ccc(CN2C(=O)C(C(C#N)C(=O)O)c3cc(F)ccc32)cc1 (centres undefined)
pIC50 [1]: 7.12 and 7.38 | pIC50 [13]: 6.16 | IC50 [14]: Not Active | Nuclear cataract [2]: 96% | Nuclear cataract [3]: 100% | Nuclear cataract [4]: 0% | Nuclear cataract [5]: 0% | Nuclear cataract [6]: 0% | Nuclear cataract [7]: 18% | Nuclear cataract [8]: 57% | Nuclear cataract [9]: 57% | Nuclear cataract [10]: 72% | Nuclear cataract [11]: 84% | Nuclear cataract [12]: 43%

N#CC(C(=O)O)C1C(=O)N(Cc2ccccc2)c2ccccc21 (centres undefined)
pIC50 [1]: 5.49

COc1ccc(CN2C(=O)C(C(C#N)C(=O)O)c3ccccc32)cc1 (centres undefined)
pIC50 [1]: 6.20

COc1ccc2c(c1)C(C(C#N)C(=O)O)C(=O)N2 (centres undefined)
pIC50 [1]: 5.27

O=C1NC(=O)[C@@]2(CCOc3ccc(F)cc32)N1 [SORBINIL]
IC50 [14]: Not Active
